Experiments:
[1] = tested on: human dermal lymphatic endothelial cells (hdLECs); experiment: qRT-PCR of valve and flow responsive gene mRNA in cultured hdLECs; assay type: cell-based
Description: FIG. 1. AS1842856 (AS) has a time and concentration dependent effect on valve genes expression. Human dermal lymphatic endothelial cells (hdLECs) were cultured under static conditions and treated for the indicated time (24, 48, and 72 hours) and concentrations from left to right: DMSO 1 μM, AS 0.1 μM, AS 0.5 μM, and AS 1 μM. Afterwards, mRNA of indicated genes was extracted, reverse transcribe and quantified by qRT-PCR analysis. All values are mean±SEM. n=3 experiment repeats; ns=not significant; *p≤0.05, **p≤0.01.
To investigate this, hdLECs were treated with three distinct concentrations of AS1842856-0.1 μM, 0.5 μM, and 1 μM for 24 hours (hrs), 48 hrs, and 72 hrs. DMSO was used as the vehicle control. The medium was changed every day with freshly made drug. Thereafter, the expression levels of valve genes and flow responsive genes, including FOXC2, GATA2, PROX1, KLF4, ITGA9, GJA4, NOS3, and CTNNB1, were determined using quantitative RT-qPCR. […] Deletion of any of these three genes leads to the absence of lymphatic valve formation during embryonic development (Petrova et al., 2004, Kazenwadel et al., 2015, Cha et al., 2016). […] However, the expression of CTNNB1 was not altered.
(§1) Human dermal lymphatic endothelial cells (hdLECs) purchased from Promocell (C-12216) were cultured in EBM-V2 (PromoCell, C-22121) media on fibronectin (20 μl/well) coated 6-well plates. hdLECs were treated with 4 different conditions: DMSO (1 μM), AS1842856 (EMD Millipore Corporation) 0.1 μM, 0.5 μM and 1 μM for 3 different time points: 24, 48, and 72 hours for qRT-PCR. For western blot, hdLECs were treated with 0.5 μM AS1842856 for 48 hours.
The RNeasy Plus Mini Kit (Qiagen) was used to isolate total RNA from hdLECs per the manufacturers' instructions. cDNA synthesis was performed using the AdvantageR RT-for-PCR kit (Takara) according to the manufacturer's guidelines. qPCR was performed in a QuantStudio 6 realtime PCR system (Applied Biosystems) with TaqmanR probes (Applied Biosystems, Thermofisher) and the Cq value of each gene was normalized to the that of GAPDH.

[2] = tested on: human dermal lymphatic endothelial cells (hdLECs); experiment: Western blot quantification of protein levels in cultured hdLECs; assay type: cell-based; settings: 0.5 μM, 48 hours, vs vehicle control
Description: FIGS. 2A-2F. AS1842856 elevates protein expression of valve genes and promotes b-catenin nuclear localization in cultured hdLECs. (A) hdLECs were cultured under static condition and treated for 48 hours with 0.5 μM DMSO (vehicle control) or 0.5 μM AS treatment. Thereafter, proteins were extracted, and western blot perform for the indicated proteins. ACTB is the loading control. (B) Quantification results of indicated proteins in western blot from three independent experiments. (C-F) Immunostaining of cultured hdLECs for PROX1 and CTNNB1 protein. All values are mean±SEM. n=3 experiment repeats; ns=not significant; *p≤0.05, **p≤0.01, ***p≤0.001. Vehicle control: 0.5 μM DMSO for 48 hours treatment. AS1842856: 0.5 μM AS1842856 for 48 hours treatment. Cells were stained for PROX1 (green) and CTNNB1 (purple). (E) and (F) are the merged images for PROX1 and CTNNB1. Scale bar is 50 μm.
Next, the inventors performed western blot on the cells treated with 0.5 μM for 48 hours to determine whether the expression of these genes on the protein level was consistent with the PCR results. Three independent experiments of cultured hdLECs were performed, similarly to the quantitative RT-qPCR experiments. Protein levels of FOXC2, GATA2, KLF4, ITGα9, GJA4, activated β-catenin, total β-catenin, PROX1, and FOXO1 were quantified from western blot.
as §1
hdLECs were washed 3 times with 1×PBS and 1×RIPA buffer and 100× phosphatase inhibitor (Pierce™, Thermoscientific) was added. A cell scraper was used to scrape the hdLECs off the 6-well plate. hdLECs were pipetted and submerged in lysis RIPA solution. The lysate was collected in a 1.5 mL protein LoBind tube and incubated for 15 mins in ice on an orbital shaker (Belly button, IBI Scientific) for complete lysis. The lysates were then centrifuged for 20 mins at 18300 RPM at 4° C. to and the supernatant was collected in a separate Protein LoBind tube without disturbing the pellet. A Bicinchoninic acid assay (BCA assay, Pierce™, Thermofisher) was performed to calculate protein concentration according to manufacturer's instructions and 25 μg of the total protein was utilized to perform the western blot. The Invitrogen™ mini gel tank apparatus was used to run the western blot on a 4-12% Blot™ Bis Tris Plus polyacrylamide gel. Protein transfer to a PVDF membrane was carried out using an iBlot 2 dry blotting system (Lifesciences, Thermofisher) under the P0 module. The iBind Flex western system (Thermo Fisher Scientific) was used to process the mini blots utilizing an incubation time of >2.5 hours after which the blots were imaged using a Bio-Rad ChemiDoc imaging system.
Quantification analysis of western blot bands was performed in the following manner: 1. Unsaturated western blot images (.scn) were opened with Image Lab 6.1 (Bio-Rad); 2. Using the “lane and bands” tool on the left sidebar of Image Lab, the lanes were defined and adjusted manually; 3. Using the “lane and bands” tool, the bands were identified manually with “add” bands option; 4. The “lane profile” tool was used to omit background; 5. The standard and sample lanes were labeled on the “image info” tool; 6. The adjusted volume (Int) value was obtained using the “lane analysis” tool on Image Lab; 7. Each protein's band volume was normalized to the band volume of the housekeeping protein (b-Actin); 8. Relative expression of each protein was calculated by normalizing the band volume of the experimental group (AS 0.5) to its control (DMSO).

CCn1cc(C(=O)O)c(=O)c2c(N)c(F)c(NC3CCCCC3)cc21 [AS1842856]
increased expression of FOXC2, GATA2, KLF4, ITGA9, GJA4, NOS3, and PROX1 (comparison of treatment conditions) ([1]; 0.5 μM for 48 hrs): best results
GATA2 mRNA expression level ([1]; 24 hrs or 72 hrs AS treatment vs DMSO): not with 24 hrs or 72 hrs treatment
CTNNB1 mRNA expression ([1]; 48 hrs AS treatment vs DMSO): not altered
FOXC2 mRNA expression level ([1]; 48 hrs AS treatment vs DMSO): significantly upregulated
GATA2 mRNA expression level ([1]; 48 hrs AS treatment vs DMSO): significantly upregulated
GJA4 mRNA expression level ([1]; 48 hrs AS treatment vs DMSO): significantly higher
ITGA9 mRNA expression level ([1]; 48 hrs AS treatment vs DMSO): significantly higher
KLF4 mRNA expression level ([1]; 48 hrs AS treatment vs DMSO): significantly increased
NOS3 mRNA expression ([1]; 48 hrs AS treatment vs DMSO): significantly increased
PROX1 mRNA expression level ([1]; 48 hrs AS treatment vs DMSO): significantly increased
FOXC2 mRNA expression level ([1]; 48 hrs, 0.1 μM): trend of increase
GATA2 mRNA expression level ([1]; 48 hrs, 0.1 μM): trend of increase
GJA4 mRNA expression level ([1]; 48 hrs, 0.1 μM and 0.5 μM): upregulated
ITGA9 mRNA expression level ([1]; 48 hrs, 0.1 μM and 0.5 μM): upregulated
NOS3 mRNA expression level ([1]; 48 hrs, 0.1 μM and 0.5 μM): upregulated
PROX1 mRNA expression level ([1]; 48 hrs, 0.1 μM and 0.5 μM): upregulated
FOXC2 mRNA expression ([1]; 48 hrs, 0.5 μM and 1 μM): significant increase
GATA2 mRNA expression ([1]; 48 hrs, 0.5 μM and 1 μM): significant increase
GJA4 mRNA expression level ([1]; 48 hrs, 1 μM): not under 1 μM
ITGA9 mRNA expression level ([1]; 48 hrs, 1 μM): not under 1 μM
NOS3 mRNA expression level ([1]; 48 hrs, 1 μM): not under 1 μM
PROX1 mRNA expression level ([1]; 48 hrs, 1 μM): not under 1 μM
CTNNB1 mRNA expression ([1]; 48 hrs, 0.1, 0.5 and 1 μM): None of the concentrations induced significant upregulation
FOXO1 mRNA expression ([1]; 48 hrs, 0.1, 0.5 and 1 μM): None of the concentrations induced significant upregulation
KLF4 mRNA expression ([1]; 48 hrs, all three concentrations (0.1, 0.5, 1 μM)): increased
FOXO1 mRNA expression level ([1]; AS treatment vs DMSO): not altered
FOXC2 protein expression level [2]: significantly upregulated
FOXO1 protein expression [2]: did not change
GATA2 protein expression level [2]: significantly upregulated
GJA4 protein expression level [2]: significantly upregulated
ITGA9 protein expression level [2]: significantly upregulated
KLF4 protein expression level [2]: significantly upregulated
PROX1 protein level [2]: did not alter
amount of active (non-phosphorylated) β-catenin protein [2]: increased significantly
amount of p-GSK3β [2]: significantly decreased
amount of total GSK3β [2]: significantly increased
amount of total β-catenin protein [2]: increased significantly

Source: patent US20250009734A1, “METHODS OF INHIBITING FOXO1 FOR TREATMENT OF LYMPHATIC DISORDERS” (UNIVERSITY OF SOUTH FLORIDA, priority 2023, published 2025)
